Measured values reported in ChEMBL document CHEMBL3507680, “University of Dundee, Gates Library screen for HepG2 cell viability”.

Assay: Human HepG2 cell viability assay in 384 well format
Format: toxicity, cell-based
Parameters: dose 125 nL, time 70.5 hour; concentration not given beside the values
Conditions: HepG2 cells, read-out: Inhibition

CC(C)Cn1cnc(S(=O)(=O)NCCc2nnc3ccccn23)c1
cytotoxicity at 70.5 h: 15.7%

CS(=O)(=O)N1CCC(OCCCc2ccccc2)C1 (stereo not given)
cytotoxicity at 70.5 h: 3.28%

COCCN(Cc1ccccc1)Cc1nc(-c2ccsc2)no1
cytotoxicity at 70.5 h: -3.79%

Cc1cnn(CC2CCCCN2c2ncnc3ccccc23)c1 (stereo not given)
cytotoxicity at 70.5 h: -5.59%

Cc1nc(CNC(C(=O)N2CCOCC2)c2ccccc2)cs1 (stereo not given)
cytotoxicity at 70.5 h: -6.01%

Cc1cnn(CC2CCCN2c2ncnc3ccccc23)c1 (stereo not given)
cytotoxicity at 70.5 h: 9.14%

Cc1cccc(OCCNC(=O)C(C)S(=O)(=O)c2ccccn2)c1 (stereo not given)
cytotoxicity at 70.5 h: -2.85%

CN(C)S(=O)(=O)c1ccc(CNC(=O)C2CC2)cc1
cytotoxicity at 70.5 h: 1.13%

O=C(CN1CCS(=O)(=O)CC1)NCc1cccc(Br)c1
cytotoxicity at 70.5 h: -2.1%

Cn1cnnc1CNC(=O)C1CCCN(Cc2ccccc2)C1 (stereo not given)
cytotoxicity at 70.5 h: 0.292%

N#CC1(NC(=O)Cn2nnc(-c3cc4ccccc4o3)n2)CCCC1
cytotoxicity at 70.5 h: -11.5%

Cc1nc(NC(=O)C2CCCN(C(N)=O)C2)sc1-c1ccccc1 (stereo not given)
cytotoxicity at 70.5 h: 28.7%

COCCCNC(=O)Cn1nnc(-c2cc3ccccc3o2)n1
cytotoxicity at 70.5 h: -13.2%

Cc1ccc(Cl)cc1S(=O)(=O)NCc1cnc(N(C)C)n1C
cytotoxicity at 70.5 h: -11.7%

Cc1c(Cl)cccc1S(=O)(=O)NCc1cnc(N(C)C)n1C
cytotoxicity at 70.5 h: -8.26%

Nc1cc2c(nn1)CCN(C(=O)c1ccc(-c3ccco3)[nH]c1=O)C2
cytotoxicity at 70.5 h: -1.23%

Cc1nc(C)c(CNCC2CCCn3ccnc32)s1 (stereo not given)
cytotoxicity at 70.5 h: 15.5%

CC(NC(=O)N1CCC[C@H]1CO)c1noc(-c2ccccc2)n1 (stereo not given in full)
cytotoxicity at 70.5 h: -3.8%

Cc1cccc(N(CC(=O)N2CCCCC2)Cc2nc(=O)[nH][nH]2)c1
cytotoxicity at 70.5 h: -0.474%

COC(=O)N1CCCN(C(=O)NC2CCc3ccccc3C2)CC1 (stereo not given)
cytotoxicity at 70.5 h: -1.7%

Cc1nsc(N2CCN(C(=O)Nc3cccc(F)c3)CC2)n1
cytotoxicity at 70.5 h: 13.5%

CC1CCCN(c2ccccc2OCC(=O)NC2CC2)C1 (stereo not given)
cytotoxicity at 70.5 h: 2.91%

CCNC(=O)COc1ccccc1N1CCCC(C)C1 (stereo not given)
cytotoxicity at 70.5 h: -1.31%

CN(Cc1ccccc1F)C(=O)c1ccoc1
cytotoxicity at 70.5 h: -4.97%

OC(CN1CCCc2cc(OC(F)F)ccc21)Cn1cccn1 (stereo not given)
cytotoxicity at 70.5 h: 12.9%

Cc1csc(C(C)(C)NCC(=O)N2CCCC(C(N)=O)C2)n1 (stereo not given)
cytotoxicity at 70.5 h: 6.15%

OC(CN1CCCc2ccc(F)cc21)Cn1cccn1 (stereo not given)
cytotoxicity at 70.5 h: 7.05%

C=C(C)COCCNC(=O)N1CCc2c(cccc2OC)C1
cytotoxicity at 70.5 h: 7.17%

CC(Cn1ccnc1)NS(=O)(=O)Cc1ccc(F)cc1 (stereo not given)
cytotoxicity at 70.5 h: -2.62%

Cc1cc(Br)c(O)c(C(=O)N2CCC(CN3CCCCCC3)CC2)c1
cytotoxicity at 70.5 h: -5.82%

Clc1ccc(CN2CCN(Cn3nccc3-c3cccnc3)CC2)s1
cytotoxicity at 70.5 h: 6.58%

COC(=O)c1cccc(S(=O)(=O)NC(=O)c2ccccc2F)c1
cytotoxicity at 70.5 h: -5.66%

Cc1nc(C(=O)Nc2cc(N3CCNC3=O)ccc2Cl)cs1
cytotoxicity at 70.5 h: -2.48%

N#Cc1c(F)cccc1NCCCOCC1CCOCC1
cytotoxicity at 70.5 h: -3.66%

CSc1ccc(OC(C)C(=O)Nc2cc[nH]n2)cc1 (stereo not given)
cytotoxicity at 70.5 h: -2.7%

Cc1noc2ncc(S(=O)(=O)Nc3cc(C(C)(C)C)n[nH]3)cc12
cytotoxicity at 70.5 h: -4.7%

CSc1ccc(OC(C)C(=O)Nc2c(C)n[nH]c2C)cc1 (stereo not given)
cytotoxicity at 70.5 h: -3.26%

O=C(NS(=O)(=O)c1cccc(F)c1)c1ccccc1F
cytotoxicity at 70.5 h: 13.1%

CC(C)(C(=O)NCc1n[nH]c(=O)[nH]1)c1ccc(F)cc1
cytotoxicity at 70.5 h: -2.39%

COCC(NC(=O)NCc1ccc(C)c(F)c1)c1ccco1 (stereo not given)
cytotoxicity at 70.5 h: 1.44%

COCC(NC(=O)NCc1cccc(C#N)c1)c1ccco1 (stereo not given)
cytotoxicity at 70.5 h: -2.38%

CCNC(=O)C1CCCN(c2ccc(C#N)cc2C(F)(F)F)C1 (stereo not given)
cytotoxicity at 70.5 h: -4.1%

COC(C)(C)CC(C)NC(=O)Nc1ccccn1 (stereo not given)
cytotoxicity at 70.5 h: -2.34%

Cc1csc(C(C)(C)NCC(=O)N2CCCC(C(F)(F)F)C2)n1 (stereo not given)
cytotoxicity at 70.5 h: 8.68%

CC(C)OCCOCC(O)CN(C)C(=O)Nc1ccc(F)cc1Cl (stereo not given)
cytotoxicity at 70.5 h: -2.75%

CC(C)(C)C(=O)N1CCN(Cn2nccc2-c2cccnc2)CC1
cytotoxicity at 70.5 h: -3.16%

CC(C)C(C)(O)CNC(=O)Nc1ccccn1 (stereo not given)
cytotoxicity at 70.5 h: -1.52%

CCC[C@@H](NC(N)=O)C(=O)N1CCc2ccccc2CC1
cytotoxicity at 70.5 h: -3.57%

CN(CC1CC1)C(=O)Cc1csc(-c2ncccn2)n1
cytotoxicity at 70.5 h: 0.625%

NC(=O)CN(C(=O)c1cccc(C(F)(F)F)c1)C1CCCC1
cytotoxicity at 70.5 h: -6%

COc1ccc(OC)c(CCNc2ncc(S(N)(=O)=O)s2)c1
cytotoxicity at 70.5 h: 0.207%

COc1ccc(OC)c(CN(C)c2ncc(S(N)(=O)=O)s2)c1
cytotoxicity at 70.5 h: -10.9%

CS(=O)(=O)c1nnc(NC(=O)CCc2cccs2)[nH]1
cytotoxicity at 70.5 h: 17.8%

CN(CCn1cccn1)S(=O)(=O)c1ccc(C#N)cc1
cytotoxicity at 70.5 h: -8.98%

CCS(=O)(=O)CCNC(=O)NCc1ccccc1-n1cccn1
cytotoxicity at 70.5 h: 2.95%

CSC(CNS(=O)(=O)c1cnn(C)c1)c1cccc(Cl)c1 (stereo not given)
cytotoxicity at 70.5 h: -6.72%

CC(C)Oc1cccc(CC(=O)N(CC(N)=O)C2CCCC2)c1
cytotoxicity at 70.5 h: -6.57%

CCOc1ccc(CN(C)C(=O)COc2ccc(C)nc2)cc1
cytotoxicity at 70.5 h: -8.96%

COc1ccccc1C1(CNc2snc(Cl)c2C#N)CCCC1
cytotoxicity at 70.5 h: 19.8%

CCCn1c(O)nnc1SCC1OCCc2ccccc21 (stereo not given)
cytotoxicity at 70.5 h: -7.64%

FC(F)(F)c1cc(NCCCn2cccn2)nc(-c2cccnc2)n1
cytotoxicity at 70.5 h: 22.2%

Cn1c(N)nnc1SCC1OCCc2ccccc21 (stereo not given)
cytotoxicity at 70.5 h: 6.39%

Cn1cccc(NC(=O)N2CCC(CSc3ccccc3)C2)c1=O (stereo not given)
cytotoxicity at 70.5 h: -13.5%

Cc1cc(NCc2csc(-c3ccco3)n2)ccc1C(N)=O
cytotoxicity at 70.5 h: -6.99%

O=C(N1CCC(O)(C(F)(F)F)C1)C1(c2ccc(Cl)cc2)CC1 (stereo not given)
cytotoxicity at 70.5 h: 18.9%

CC(C)CC(C(=O)N1CCCSCC1)N1CCCCC1=O (stereo not given)
cytotoxicity at 70.5 h: -3.18%

Cc1ccc(CNc2cnn(CC(F)F)c2)cc1C
cytotoxicity at 70.5 h: -0.638%

CN1CCN(S(=O)(=O)c2cncc(F)c2)c2ccccc2C1
cytotoxicity at 70.5 h: -11.8%

Cc1cc(F)c(S(=O)(=O)N(C)CCn2cccn2)cc1F
cytotoxicity at 70.5 h: -9.11%

Cc1ccc(OCc2nnc(SCC3CCCN(C)C3)o2)cc1 (stereo not given)
cytotoxicity at 70.5 h: -8.56%

O=C(Cc1ccccc1F)NCC1CCN(CCN2CCOCC2)C1 (stereo not given)
cytotoxicity at 70.5 h: 2.01%

CCc1nnsc1C(=O)N(C)Cc1ccco1
cytotoxicity at 70.5 h: -1.63%

O=C(NCC1CCOC1)N1CCN(c2ncccn2)CC1 (stereo not given)
cytotoxicity at 70.5 h: 0.214%

CCNC(=O)CNS(=O)(=O)c1cc(Br)ccc1F
cytotoxicity at 70.5 h: -2.68%

CC1COCCN1C(=O)NCCn1ccnc1 (stereo not given)
cytotoxicity at 70.5 h: -3.25%

Cc1cc(C(=O)N2CCn3cc(CN4CCCCC4)nc3C2)no1
cytotoxicity at 70.5 h: -9.93%

Cc1nc(CNC(C)c2cccc(N3CCCC3=O)c2)cs1 (stereo not given)
cytotoxicity at 70.5 h: -7.67%

CCc1nc(CNC(C)c2cccc(N3CCCC3=O)c2)cs1 (stereo not given)
cytotoxicity at 70.5 h: -12.3%

COc1cccc(CNc2c(C)nn(C(C)C)c2C)c1
cytotoxicity at 70.5 h: -2.2%

CC(C)NCc1nc(-c2ccc3c(c2)OCO3)c[nH]1
cytotoxicity at 70.5 h: -11.7%

CNC(=O)C1Cn2ccnc2C2(CCN(Cc3cccs3)CC2)O1 (stereo not given)
cytotoxicity at 70.5 h: 11.6%

Cc1ccc(C(=O)N2CC[C@]3(C[C@@H](OCc4ccccn4)CO3)C2)nc1
cytotoxicity at 70.5 h: 12.9%

O=C(NCc1ccccn1)[C@H]1COC[C@H]2CN(CC3CC3)C[C@H]21
cytotoxicity at 70.5 h: -10.6%

CNC(=O)C1Cn2ccnc2C2(CCN(Cc3ccncc3)CC2)O1 (stereo not given)
cytotoxicity at 70.5 h: -10.9%

CCOCc1ccc(CNC2=NCCCN2)cc1
cytotoxicity at 70.5 h: -2.49%
